Assay [1] has as its target isolated recombinant JAK1 kinase domain (Homo sapiens (Human), UniProt P23458). Nature of the assay: JAK1 enzyme assay (Caliper LabChip, peptide phosphorylation). It counts as biochemical. The following applies: isolated recombinant JAK1 kinase domain, 25 μM ATP.
Assay [2] concerns the target isolated recombinant JAK2 kinase domain (Homo sapiens (Human), UniProt O60674). Description: JAK2 enzyme assay (Caliper LabChip, peptide phosphorylation). Type of assay: biochemical. The note with it: 25 μM ATP.

isolated recombinant JAK2 kinase domain, sequence (O60674 849-1124): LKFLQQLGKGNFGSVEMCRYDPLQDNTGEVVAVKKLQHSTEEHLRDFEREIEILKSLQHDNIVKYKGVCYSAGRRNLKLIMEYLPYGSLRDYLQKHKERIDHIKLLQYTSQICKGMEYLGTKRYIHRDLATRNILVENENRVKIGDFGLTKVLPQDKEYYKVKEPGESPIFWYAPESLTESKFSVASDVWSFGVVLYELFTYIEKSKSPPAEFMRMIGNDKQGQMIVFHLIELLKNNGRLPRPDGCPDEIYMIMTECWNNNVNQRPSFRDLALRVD
isolated recombinant JAK1 kinase domain, sequence (P23458 875-1153): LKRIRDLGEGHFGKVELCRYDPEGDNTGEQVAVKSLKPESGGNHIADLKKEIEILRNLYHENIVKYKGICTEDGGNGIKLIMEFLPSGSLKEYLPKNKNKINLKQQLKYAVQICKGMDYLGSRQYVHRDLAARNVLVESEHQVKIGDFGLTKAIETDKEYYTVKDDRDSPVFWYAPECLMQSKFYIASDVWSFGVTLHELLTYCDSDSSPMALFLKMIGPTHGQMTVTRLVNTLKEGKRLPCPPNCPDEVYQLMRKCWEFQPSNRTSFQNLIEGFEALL

Consider `O=C(Nc1sc(N2CCN(CCc3ccccc3)CC2)nc1-c1cc(Cl)ccc1OC(F)F)c1cnn2cccnc12` [Example 206, N-[4-[5-chloro-2-(difluoromethoxy)phenyl]-2-[4-(2-phenylethyl)piperazin-1-yl]thiazol-5-yl]pyrazolo[1,5-a]pyrimidine-3-carboxamide], for which the figures for the Ki in assay [1] and in assay [2] were 14 nM and 8.67 nM, respectively.

For the compound `CN1CCC2(CC1)CN(C(=O)Cn1cc(NC(=O)c3cnn4cccnc34)c(-c3cc(Cl)ccc3OC(F)F)n1)CCO2` [Example 213, N-[3-[5-chloro-2-(difluoromethoxy)phenyl]-1-[2-(9-methyl-1-oxa-4,9-diazaspiro[5.5]undecan-4-yl)-2-oxo-ethyl]pyrazol-4-yl]pyrazolo[1,5-a]pyrimidine-3-carboxamide], the figures for the Ki in assay [1] and in assay [2] were 1.49 nM and 2.34 nM, respectively.

For the compound `CN1CC2(C1)CN(C(=O)Cn1cc(NC(=O)c3cnn4cccnc34)c(-c3cc(Cl)ccc3OC(F)F)n1)C2` [Example 214, N-[3-[5-chloro-2-(difluoromethoxy)phenyl]-1-[2-(6-methyl-2,6-diazaspiro[3.3]heptan-2-yl)-2-oxo-ethyl]pyrazol-4-yl]pyrazolo[1,5-a]pyrimidine-3-carboxamide], the values for the inhibitory constant (Ki) in assay [1] and in assay [2] were 1.17 nM and 1.29 nM, respectively.

Turning to `O=C(Nc1cn(CC(=O)N2CC3(CCNCC3)C2)nc1-c1cc(Cl)ccc1OC(F)F)c1cnn2cccnc12` [Example 217, N-[3-[5-chloro-2-(difluoromethoxy)phenyl]-1-[2-(2,7-diazaspiro[3.5]nonan-2-yl)-2-oxo-ethyl]pyrazol-4-yl]pyrazolo[1,5-a]pyrimidine-3-carboxamide], the Ki (usually the equilibrium dissociation constant of an inhibitor or competing ligand from its target) stood at 1.07 nM in assay [1] and 1.37 nM in assay [2].

For the compound `O=C(Nc1cn(CC(=O)N2CCN(CCCO)CC2)nc1-c1cc(Cl)ccc1OC(F)F)c1cnn2cccnc12` [Example 230, N-[3-[5-chloro-2-(difluoromethoxy)phenyl]-1-[2-[4-(3-hydroxypropyl)piperazin-1-yl]-2-oxo-ethyl]pyrazol-4-yl]pyrazolo[1,5-a]pyrimidine-3-carboxamide], the Ki turned out to be 0.61 nM in assay [1] and 0.71 nM in assay [2].

As for `O=C(Nc1cn(CC(=O)N2CCN(CCOCCO)CC2)nc1-c1cc(Cl)ccc1OC(F)F)c1cnn2cccnc12` [Example 231, N-[3-[5-chloro-2-(difluoromethoxy)phenyl]-1-[2-[4-[2-(2-hydroxyethoxy)ethyl]piperazin-1-yl]-2-oxo-ethyl]pyrazol-4-yl]pyrazolo[1,5-a]pyrimidine-3-carboxamide], the Ki was 0.54 nM in assay [1] and 1.18 nM in assay [2].

In the case of `CS(=O)(=O)CCN1CCN(C(=O)Cn2cc(NC(=O)c3cnn4cccnc34)c(-c3cc(Cl)ccc3OC(F)F)n2)CC1` [Example 232, N-[3-[5-chloro-2-(difluoromethoxy)phenyl]-1-[2-[4-(2-methylsulfonylethyl)piperazin-1-yl]-2-oxo-ethyl]pyrazol-4-yl]pyrazolo[1,5-a]pyrimidine-3-carboxamide], the Ki in assay [1] was determined as 0.74 nM; in assay [2] it was 1.46 nM.

For `CN1CCN(C(=O)Cn2cc(NC(=O)c3cnn4cccnc34)c(-c3cc(Cl)ccc3OC(F)F)n2)C[C@@H]1CO` [Example 234, N-[3-[5-chloro-2-(difluoromethoxy)phenyl]-1-[2-[(3R)-3-(hydroxymethyl)-4-methyl-piperazin-1-yl]-2-oxo-ethyl]pyrazol-4-yl]pyrazolo[1,5-a]pyrimidine-3-carboxamide], the figures for the Ki in assay [1] and in assay [2] were 0.58 nM and 1.22 nM, respectively.

On to `O=C(Nc1cn(CC(=O)N2CCN(c3ccccc3)CC2)nc1-c1cc(Cl)ccc1OC(F)F)c1cnn2cccnc12` [Example 236, N-[3-[5-chloro-2-(difluoromethoxy)phenyl]-1-[2-oxo-2-(4-phenylpiperazin-1-yl)ethyl]pyrazol-4-yl]pyrazolo[1,5-a]pyrimidine-3-carboxamide], for which the Ki in assay [1] amounted to 0.41 nM; in assay [2], 0.74 nM.

Take `N#Cc1ccc(N2CCN(C(=O)Cn3cc(NC(=O)c4cnn5cccnc45)c(-c4cc(Cl)ccc4OC(F)F)n3)CC2)cc1` [Example 237, N-[3-[5-chloro-2-(difluoromethoxy)phenyl]-1-[2-[4-(4-cyanophenyl)piperazin-1-yl]-2-oxo-ethyl]pyrazol-4-yl]pyrazolo[1,5-a]pyrimidine-3-carboxamide]: the inhibition constant (Ki) is 0.32 nM in assay [1] and 0.76 nM in assay [2].

On to `O=C(Nc1cn(CC(=O)N2CCCN(CCO)CC2)nc1-c1cc(Cl)ccc1OC(F)F)c1cnn2cccnc12` [Example 240, N-[3-[5-chloro-2-(difluoromethoxy)phenyl]-1-[2-[4-(2-hydroxyethyl)-1,4-diazepan-1-yl]-2-oxo-ethyl]pyrazol-4-yl]pyrazolo[1,5-a]pyrimidine-3-carboxamide], for which the Ki in assay [1] was 1 nM; in assay [2], 1.68 nM.

Consider `O=C(Nc1cn(CC(=O)N2CCN3CCCCC3C2)nc1-c1cc(Cl)ccc1OC(F)F)c1cnn2cccnc12` (stereo not shown) [Example 241, N-[1-[2-(1,3,4,6,7,8,9,9a-octahydropyrido[1,2-a]pyrazin-2-yl)-2-oxo-ethyl]-3-[5-chloro-2-(difluoromethoxy)phenyl]pyrazol-4-yl]pyrazolo[1,5-a]pyrimidine-3-carboxamide], for which the Ki is 0.87 nM in assay [1] and 1.25 nM in assay [2].

In the case of `CN1[C@@H]2CC[C@H]1CN(C(=O)Cn1cc(NC(=O)c3cnn4cccnc34)c(-c3cc(Cl)ccc3OC(F)F)n1)C2` [Example 242, N-[3-[5-chloro-2-(difluoromethoxy)phenyl]-l-[2-[(1S,5R)-8-methyl-3,8-diazabicyclo[3.2.1]octan-3-yl]-2-oxo-ethyl]pyrazol-4-yl]pyrazolo[1,5-a]pyrimidine-3-carboxamide], the values for the Ki in assay [1] and in assay [2] were 0.95 nM and 1.03 nM, respectively.

In the case of `CN1CCN(C(=O)Cn2cc(NC(=O)c3c(N)nn4cccnc34)c(-c3cc(Cl)ccc3OC(F)F)n2)CC1` [Example 243, 2-amino-N-[3-[5-chloro-2-(difluoromethoxy)phenyl]-1-[2-(4-methylpiperazin-1-yl)-2-oxo-ethyl]pyrazol-4-yl]pyrazolo[1,5-a]pyrimidine-3-carboxamide], the Ki in assay [1] came out at 0.49 nM; in assay [2] it was 0.36 nM.

Take `Nc1nn2cccnc2c1C(=O)Nc1cn(CC(=O)N2CCN(CCO)CC2)nc1-c1cc(Cl)ccc1OC(F)F` [Example 244, 2-amino-N-[3-[5-chloro-2-(difluoromethoxy)phenyl]-1-[2-[4-(2-hydroxyethyl)piperazin-1-yl]-2-oxo-ethyl]pyrazol-4-yl]pyrazolo[1,5-a]pyrimidine-3-carboxamide]: the Ki worked out at 0.49 nM in assay [1] and 0.24 nM in assay [2].

For `COCCN1CCN(C(=O)Cn2cc(NC(=O)c3c(N)nn4cccnc34)c(-c3cc(Cl)ccc3OC(F)F)n2)CC1` [Example 245, 2-amino-N-[3-[5-chloro-2-(difluoromethoxy)phenyl]-1-[2-[4-(2-methoxyethyl)piperazin-1-yl]-2-oxo-ethyl]pyrazol-4-yl]pyrazolo[1,5-a]pyrimidine-3-carboxamide], the Ki in assay [1] was 0.35 nM; in assay [2], 0.22 nM.

Regarding `CCN1CCN(C(=O)Cn2cc(NC(=O)c3c(N)nn4cccnc34)c(-c3cc(Cl)ccc3OC(F)F)n2)CC1` [Example 247, 2-amino-N-[3-[5-chloro-2-(difluoromethoxy)phenyl]-1-[2-(4-ethylpiperazin-1-yl)-2-oxo-ethyl]pyrazol-4-yl]pyrazolo[1,5-a]pyrimidine-3-carboxamide], the Ki is 0.55 nM in assay [1] and 0.3 nM in assay [2].

For the compound `Nc1nn2cccnc2c1C(=O)Nc1cn(CC(=O)N2CCN(CC3CC3)CC2)nc1-c1cc(Cl)ccc1OC(F)F` [Example 248, 2-amino-N-[3-[5-chloro-2-(difluoromethoxy)phenyl]-1-[2-[4-(cyclopropyl-methyl)piperazin-1-yl]-2-oxo-ethyl]pyrazol-4-yl]pyrazolo[1,5-a]pyrimidine-3-carboxamide], the Ki in assay [1] came out at 0.62 nM; in assay [2], 0.39 nM.

For the compound `CN(CCc1ccccc1)Cc1nc(-c2cc(Cl)ccc2OC(F)F)c(NC(=O)c2cnn3cccnc23)s1` [Example 261, N-[4-[5-chloro-2-(difluoromethoxy)phenyl]-2-[[methyl(2-phenylethyl)amino]methyl]thiazol-5-yl]pyrazolo[1,5-a]pyrimidine-3-carboxamide], the Ki amounted to 17.9 nM in assay [1] and 10.2 nM in assay [2].

In the case of `CC1(O)CCN(C(=O)Cn2cc(NC(=O)c3cnn4cccnc34)c(-c3cc(Cl)ccc3OC(F)F)n2)C1` (stereo not shown) [Example 269, N-[3-[5-chloro-2-(difluoromethoxy)phenyl]-1-[2-(3-hydroxy-3-methyl-pyrrolidin-1-yl)-2-oxo-ethyl]pyrazol-4-yl]pyrazolo[1,5-a]pyrimidine-3-carboxamide], the Ki in assay [1] was 0.33 nM; in assay [2] it was 0.83 nM.

As for `O=C(Nc1cn(CC(=O)N2CCC(O)(CO)CC2)nc1-c1cc(Cl)ccc1OC(F)F)c1cnn2cccnc12` [Example 272, N-[3-[5-chloro-2-(difluoromethoxy)phenyl]-1-[2-[4-hydroxy-4-(hydroxymethyl)-1-piperidyl]-2-oxo-ethyl]pyrazol-4-yl]pyrazolo[1,5-a]pyrimidine-3-carboxamide], the Ki amounted to 0.33 nM in assay [1] and 0.78 nM in assay [2].

Consider `Nc1nn2cccnc2c1C(=O)Nc1cn(CC(=O)N2CCOC(CO)C2)nc1-c1cc(Cl)ccc1OC(F)F` (stereo not shown) [Example 273, 2-amino-N-[3-[5-chloro-2-(difluoromethoxy)phenyl]-1-[2-[2-(hydroxy-methyl)morpholin-4-yl]-2-oxo-ethyl]pyrazol-4-yl]pyrazolo[1,5-a]pyrimidine-3-carboxamide], for which the figures for the inhibitory constant (Ki) in assay [1] and in assay [2] were 0.49 nM and 0.23 nM, respectively.

With `O=C(Nc1cn(CC(=O)N2CCC(OCCO)CC2)nc1-c1cc(Cl)ccc1OC(F)F)c1cnn2cccnc12` [Example 275, N-[3-[5-chloro-2-(difluoromethoxy)phenyl]-1-[2-[4-(2-hydroxyethoxy)-1-piperidyl]-2-oxo-ethyl]pyrazol-4-yl]pyrazolo[1,5-a]pyrimidine-3-carboxamide], the Ki in assay [1] stood at 0.31 nM; in assay [2], 0.89 nM.

Values taken from patent US9346815B2, “5-chloro-2-difluoromethoxyphenyl pyrazolopyrimidine compounds, compositions and methods of use thereof” (Genentech, Inc., priority 2014, dated 2016).
